In US8268848B2, “Cyclopropane compound” (Eisai R&D Management Co., Ltd., priority 2010, dated 2012):
Read-outs that look alike come from different tables or passages of the source.

Assays:
[1] = biological target: T1, OX1 (Homo sapiens, UniProt O43613); assay: Measurement of orexin receptor-binding ability ([125I]-OX-A, cell membranes, OX1); set-up: expressed in transfected cells; host or cells: CHO cells (membrane preparation)
T1 sequence (O43613 1-425): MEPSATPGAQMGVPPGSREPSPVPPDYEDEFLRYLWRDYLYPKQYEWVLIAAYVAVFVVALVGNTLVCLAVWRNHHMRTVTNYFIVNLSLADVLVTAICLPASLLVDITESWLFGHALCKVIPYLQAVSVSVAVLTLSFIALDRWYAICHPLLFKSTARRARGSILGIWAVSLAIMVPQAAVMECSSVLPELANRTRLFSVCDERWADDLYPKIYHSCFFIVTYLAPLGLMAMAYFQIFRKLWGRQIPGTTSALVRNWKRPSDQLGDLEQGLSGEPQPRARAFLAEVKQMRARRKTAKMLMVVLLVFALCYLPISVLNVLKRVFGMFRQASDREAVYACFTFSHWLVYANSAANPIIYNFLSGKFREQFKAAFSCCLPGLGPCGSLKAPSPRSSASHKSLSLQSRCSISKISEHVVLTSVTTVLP

[2] = biological target: T2, OX2 (Homo sapiens, UniProt O43614); assay: Measurement of orexin receptor-binding ability ([125I]-OX-A, cell membranes, OX2); set-up: expressed in transfected cells; host or cells: CHO cells (membrane preparation); settings: membranes of recombinant CHO cells expressing OX2, 0.2 nM [125I]-OX-A
T2 sequence (O43614 1-444): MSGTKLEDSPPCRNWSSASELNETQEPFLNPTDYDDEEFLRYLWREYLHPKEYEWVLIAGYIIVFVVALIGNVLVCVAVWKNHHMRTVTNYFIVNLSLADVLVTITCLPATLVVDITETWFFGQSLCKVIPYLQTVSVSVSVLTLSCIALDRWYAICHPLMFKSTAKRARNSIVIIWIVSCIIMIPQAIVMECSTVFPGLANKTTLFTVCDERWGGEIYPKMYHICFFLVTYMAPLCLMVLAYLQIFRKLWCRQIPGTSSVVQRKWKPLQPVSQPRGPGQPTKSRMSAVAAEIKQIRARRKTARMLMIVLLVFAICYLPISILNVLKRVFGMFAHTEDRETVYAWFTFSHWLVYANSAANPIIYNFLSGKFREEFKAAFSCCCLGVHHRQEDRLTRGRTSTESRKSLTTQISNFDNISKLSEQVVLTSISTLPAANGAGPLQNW

[3] = membranes of recombinant CHO cells expressing OX1, 0.2 nM [125I]-OX-A, read-out: OX1 (IC50)

`Cc1ncc(OC[C@@]2(c3ccc(F)c(F)c3)C[C@H]2C(=O)Nc2ccc(Cl)cn2)c(C)n1` [Example 168, (1R,2S)-N-(5-chloropyridin-2-yl)-2-(3,4-difluorophenyl)-2-{[(2,4-dimethylpyrimidin-5-yl)oxy]methyl}cyclopropanecarboxamide] gave an IC50 [1] of 0.015 µM and an IC50 ([2]; OX2 (IC50) nM) of 4 nM.

With `Cc1ncc(OC[C@@]2(c3cc(F)cc(F)c3)C[C@H]2C(=O)Nc2ccc(Cl)cn2)c(C)n1` [Example 132, (1R,2S)-N-(5-chloropyridin-2-yl)-2-(3,5-difluorophenyl)-2-{[(2,4-dimethylpyrimidin-5-yl)oxy]methyl}cyclopropanecarboxamide] the IC50 [1] was 0.018 µM and the IC50 ([2]; OX2 (IC50) nM) was 4 nM.

In the case of `Cc1ncc(OC[C@@]2(c3ccccc3)C[C@H]2C(=O)Nc2cnc(F)c(C)c2)c(C)n1` [Example 57], the IC50 [1, 3] is reported as 0.532 µM and the IC50 ([2]; read-out: OX2 (IC50)) is reported as 35 nM.

`Cc1ncc(OC[C@@]2(c3cccc(F)c3)C[C@H]2C(=O)Nc2ccc(I)cn2)c(C)n1` [Example 280] gave an IC50 [1] of 0.024 µM and an IC50 ([2]; OX2 (IC50) nM) of 21 nM.

`Cc1ncc(OC[C@@]2(c3cccc(F)c3)C[C@H]2C(=O)Nc2ccc(CF)cn2)c(C)n1` [Example 282] was tested, and the IC50 [1] was 0.021 µM and the IC50 ([2]; OX2 (IC50) nM) was 2.4 nM.

With `Cc1ccc(NC(=O)[C@@H]2C[C@@]2(COc2cnc(C)nc2C)c2cccc(F)c2)nc1` [Example 278] the IC50 [1] was 0.076 µM and the IC50 ([2]; OX2 (IC50) nM) was 10 nM.

`Cc1ncc(OC[C@@]2(c3cccc(F)c3)C[C@H]2C(=O)Nc2ccncc2)c(C)n1` [Example 90] was tested, and the IC50 [1] was 2.06 µM and the IC50 ([2]; OX2 (IC50) nM) was 95 nM.

`Cc1ncc(OCC2(c3ccccc3F)CC2C(=O)Nc2ccc(Cl)cn2)c(C)n1` (stereo not shown) [Example 262] gave an IC50 [1] of 0.085 µM and an IC50 ([2]; OX2 (IC50) nM) of 51 nM.

`Cc1ncc(OC[C@@]2(c3ccccc3)C[C@H]2C(=O)Nc2cnc(Cl)c(C(F)(F)F)c2)c(C)n1` [Example 60] showed an IC50 [1, 3] greater than 2 µM and an IC50 ([2]; read-out: OX2 (IC50)) of 105 nM.

With `COCc1nc(C)ncc1OC[C@@]1(c2cccc(F)c2)C[C@H]1C(=O)Nc1ccc(Cl)cn1` [Example 198, (1R,2S)-N-(5-chloropyridin-2-yl)-2-(3-fluorophenyl)-2-{[(4-methoxymethyl-2-methylpyrimidin-5-yl)oxy]methyl}cyclopropanecarboxamide] the IC50 [1] was 0.005 µM and the IC50 ([2]; OX2 (IC50) nM) was 4 nM.

With `Cc1ncc(OCC2(c3cccc(Cl)c3)CC2C(=O)Nc2cccnc2)c(C)n1` (stereo not shown) [Example 157] the IC50 [1] was 0.397 µM and the IC50 ([2]; OX2 (IC50) nM) was 69 nM.

For `Cc1ncc(OC[C@@]2(c3cccc(F)c3)C[C@H]2C(=O)Nc2ccnc(F)c2)c(C)n1` [Example 97], the IC50 [1] was 0.105 µM and the IC50 ([2]; OX2 (IC50) nM) was 21 nM.

With `COc1ccc(C2(COc3cnc(C)nc3C)CC2C(=O)Nc2ccc(Cl)cn2)cc1` (stereo not shown) [Example 182] the IC50 [1, 3] was 0.099 µM and the IC50 ([2]; read-out: OX2 (IC50)) was 21 nM.

Work on `CCc1nc(C)ncc1OC[C@@]1(c2ccc(F)cc2)C[C@H]1C(=O)Nc1cc(C)c(F)cn1` [Example 248, (1R,2S)-2-{[(4-ethyl-2-methylpyrimidin-5-yl)oxy]methyl}-N-(5-fluoro-4-methylpyridin-2-yl)-2-(4-fluorophenyl)cyclopropanecarboxamide] yielded an IC50 [1, 3] of 0.01 µM and an IC50 ([2]; read-out: OX2 (IC50)) of 3 nM.

`Cc1ncc(OC[C@@]2(c3cc(F)cc(F)c3)C[C@H]2C(=O)Nc2ccc(F)cc2F)c(C)n1` [Example 135, (1R,2S)-N-(2,4-difluorophenyl)-2-(3,5-difluorophenyl)-2-{[(2,4-dimethylpyrimidin-5-yl)oxy]methyl}cyclopropanecarboxamide] was tested, and the IC50 [1, 3] was 0.014 µM and the IC50 ([2]; read-out: OX2 (IC50)) was 8 nM.

`COc1cc(F)cc([C@]2(COc3cnc(C)nc3C)C[C@H]2C(=O)Nc2ccc(F)cn2)c1` [Example 254] showed an IC50 [1] of 0.109 µM and an IC50 ([2]; OX2 (IC50) nM) of 11 nM.

`Cc1ncc(OC[C@@]2(c3ccc(F)c(F)c3)C[C@H]2C(=O)Nc2ccc(F)cc2F)c(C)n1` [Example 171] was tested, and the IC50 [1, 3] was 0.043 µM and the IC50 ([2]; read-out: OX2 (IC50)) was 11 nM.

For `Cc1ncc(OC[C@@]2(c3cccc(F)c3)C[C@H]2c2nc3ncccc3c(=O)[nH]2)c(C)n1` [Example 312], the IC50 [1, 3] was 0.136 µM and the IC50 ([2]; read-out: OX2 (IC50)) was 62 nM.

`Cc1cccc(NC(=O)[C@@H]2C[C@@]2(COc2cnc(C)nc2C)c2ccccc2)n1` [Example 70] showed an IC50 [1] of 0.704 µM and an IC50 ([2]; OX2 (IC50) nM) of 41 nM.

`Cc1ncc(OC[C@@]2(c3cccs3)C[C@H]2C(=O)Nc2ccc(F)cn2)c(C)n1` [Example 268] showed an IC50 [1] of 0.164 µM and an IC50 ([2]; OX2 (IC50) nM) of 36 nM.

With `COCc1nc(C)ncc1OC[C@@]1(c2cccc(Cl)c2)C[C@H]1C(=O)Nc1ccccn1` [Example 225, (1R,2S)-2-(3-chlorophenyl)-2-{[(4-methoxymethyl-2-methylpyrimidin-5-yl)oxy]methyl}-N-(pyridin-2-yl)cyclopropanecarboxamide] the IC50 [1, 3] was 0.006 µM and the IC50 ([2]; read-out: OX2 (IC50)) was 3 nM.

`Cc1ncc(OC[C@@]2(c3ccccc3)C[C@H]2C(=O)Nc2cccc(CCO)c2)c(C)n1` [Example 40] was tested, and the IC50 [1, 3] was 0.172 µM and the IC50 ([2]; read-out: OX2 (IC50)) was 9 nM.

Work on `COCc1nc(C)ncc1OC[C@@]1(c2ccc(F)cc2)C[C@H]1C(=O)Nc1ccc(F)cn1` [Example 202, (1R,2S)-2-(4-fluorophenyl)-N-(5-fluoropyridin-2-yl)-2-{[(4-methoxymethyl-2-methylpyrimidin-5-yl)oxy]methyl}cyclopropanecarboxamide] yielded an IC50 [1] of 0.014 µM and an IC50 ([2]; OX2 (IC50) nM) of 2 nM.

`Cc1ncc(OC[C@@]2(c3ccccc3)C[C@H]2C(=O)Nc2cccc(Cl)n2)c(C)n1` [Example 12] was tested, and the IC50 [1, 3] was 0.247 µM and the IC50 ([2]; read-out: OX2 (IC50)) was 53 nM.

With `Cc1nc(C)[n+]([O-])cc1OC[C@@]1(c2ccccc2)C[C@H]1C(=O)Nc1ccc(F)nc1` [Example 81, (1R,2S)-2-[(2,4-dimethyl-1-oxopyrimidin-5-yl)oxymethyl]-N-(6-fluoropyridin-3-yl)-2-phenylcyclopropanecarboxamide] the IC50 [1, 3] was 2.59 µM and the IC50 ([2]; read-out: OX2 (IC50)) was 63 nM.

In the case of `Cc1ncc(OCC2(c3cccc(Cl)c3)CC2C(=O)Nc2ccc(Cl)cn2)c(C)n1` (stereo not shown) [Example 155], the IC50 [1] is reported as 0.01 µM and the IC50 ([2]; OX2 (IC50) nM) is reported as 6 nM.

`Cc1ncc(OC[C@@]2(c3ccccc3)C[C@H]2C(=O)Nc2ccc3ccncc3c2)c(C)n1` [Example 13] showed an IC50 [1, 3] of 1.24 µM and an IC50 ([2]; read-out: OX2 (IC50)) of 71 nM.

For `Cc1ncc(OCC2(c3ccccc3F)CC2C(=O)Nc2cccnc2)c(C)n1` (stereo not shown) [Example 276], the IC50 [1] was 3.21 µM and the IC50 ([2]; OX2 (IC50) nM) was 76 nM.

With `CCc1nc(C)ncc1OC[C@@]1(c2ccccc2)C[C@H]1C(=O)Nc1ccc(F)cc1` [Example 318] the IC50 [1, 3] was 0.135 µM and the IC50 ([2]; read-out: OX2 (IC50)) was 11 nM.

Work on `Cc1ncc(OC[C@@]2(c3ccccc3)C[C@H]2C(=O)Nc2ccc(F)nc2)c(C)n1` [Example 53] yielded an IC50 [1, 3] of 0.261 µM and an IC50 ([2]; read-out: OX2 (IC50)) of 18 nM.

`Cc1ncc(OCC2(c3cccc(C(F)(F)F)c3)CC2C(=O)Nc2cccnc2)c(C)n1` (stereo not shown) [Example 277] showed an IC50 [1, 3] of 2.21 µM and an IC50 ([2]; read-out: OX2 (IC50)) of 104 nM.

For `Cc1ncc(OCC2(c3ccc(Cl)cc3)CC2C(=O)Nc2ccc(Cl)cn2)c(C)n1` (stereo not shown) [Example 158], the IC50 [1, 3] was 0.18 µM and the IC50 ([2]; read-out: OX2 (IC50)) was 27 nM.

In the case of `COCc1nc(C)ncc1OC[C@@]1(c2cccc(F)c2)C[C@H]1C(=O)Nc1ccc(F)c(F)c1` [Example 194, (1R,2S)-N-(3,4-difluorophenyl)-2-(3-fluorophenyl)-2-{[(4-methoxymethyl-2-methylpyrimidin-5-yl)oxy]methyl}cyclopropanecarboxamide], the IC50 [1, 3] is reported as 0.007 µM and the IC50 ([2]; read-out: OX2 (IC50)) is reported as 3 nM.

Molecule `Cc1ncc(OC[C@@]2(c3ccccc3)C[C@H]2C(=O)Nc2cccc(CC#N)c2)c(C)n1` [Example 39, (1R,2S)-N-[3-(cyanomethyl)phenyl]-2-{[(2,4-dimethylpyrimidin-5-yl)oxy]methyl}-2-phenylcyclopropanecarboxamide] has an IC50 [1, 3] of 0.354 µM and an IC50 ([2]; read-out: OX2 (IC50)) of 6 nM.

Work on `Cc1ncc(OC[C@@]2(c3ccccc3)C[C@H]2C(=O)Nc2cccc(C(F)(F)F)c2)c(C)n1` [Example 43, (1R,2S)-2-{[(2,4-dimethylpyrimidin-5-yl)oxy]methyl}-2-phenyl-N-[3-(trifluoromethyl)phenyl]cyclopropanecarboxamide] yielded an IC50 [1, 3] of 0.086 µM and an IC50 ([2]; read-out: OX2 (IC50)) of 7 nM.

With `Cc1ncc(OC[C@@]2(c3ccccc3)C[C@H]2C(=O)Nc2cc(Cl)ccn2)c(C)n1` [Example 49] the IC50 [1] was 0.065 µM and the IC50 ([2]; OX2 (IC50) nM) was 23 nM.

Molecule `COCc1nc(C)ncc1OC[C@@]1(c2cccc(F)c2)C[C@H]1C(=O)Nc1ccc(F)cc1` [Example 192, (1R,2S)-2-(3-fluorophenyl)-N-(4-fluorophenyl)-2-{[(4-methoxymethyl-2-methylpyrimidin-5-yl)oxy]methyl}cyclopropanecarboxamide] has an IC50 [1, 3] of 0.012 µM and an IC50 ([2]; read-out: OX2 (IC50)) of 5 nM.

`Cc1ncc(CC[C@@]2(c3ccccc3)C[C@H]2C(=O)Nc2cc(C)c(F)cn2)c(C)n1` [Example 292, (1R,2R)-2-[2-(2,4-dimethylpyrimidin-5-yl)ethyl]-N-(5-fluoro-4-methylpyridin-2-yl)-2-phenylcyclopropanecarboxamide] was tested, and the IC50 [1, 3] was 0.24 µM and the IC50 ([2]; read-out: OX2 (IC50)) was 34 nM.
